The values that follow come from publication PMC7915940, “Synthesis, Antitumor and Antibacterial Studies of New Shortened Analogues of (KLAKLAK)2-NH2 and Their Conjugates Containing Unnatural Amino Acids” (Molecules, 2021).

One series concerns Escherichia coli K12 407. It is filed as cell-based. The conditions noted are these: agar diffusion, E. coli K12 407. The procedure: Antibacterial properties of the obtained new peptides and their conjugates were tested against E. coli K12 407 strain. Antibacterial activity of tested compounds was proven through appear of free zone around the loaded disk-paper by means of agar-diffusion method (Figure 3).
All newly synthesized derivatives of (KLAKLAK)2-NH2 at two concentrations 10 μM and 20 μM, were tested against facultative anaerobic gram-negative Esherichia coli NBIMCC K12 407. The strains were obtained from the culture collection of Bulgarian National Bank for Industrial Microorganisms and Cell Cultures (Sofia, Bulgaria) and were cultured in Luria-Bertani (LB) medium (Mumbai, India). The microbiological tests were performed using the agar diffusion method. The overnight pure cultures from tested strains were prepared in liquid LB-medium. A single colony was used for inoculating the liquid LB medium in order to maintain initial bacterial concentration of 1 × 10^7 cfu/mL. 100 µL of bacterial suspensions were seeded on agar plates with solid LB-medium. After 30 min, sterile paper disks 6 mm in diameter were soaked with tested samples in amount of 6 µL and placed on the agar petri dishes surface. The plates were incubated for 24 h at 37 °C. The appeared inhibition zones and their size were measured. The sterile paper disks soaked with water was used as blank. Mean values were calculated by performing the experiments in triplicates.
For orientation: In agar diffusion tests the substance spreads into inoculated agar from a disc or well.

A short description of series [1]: In vitro cytotoxicity testing (3T3 NRU test). The conditions noted are these: mouse. It is filed as cell-based. On the procedure: The newly synthesized compounds were studied for cytotoxicity by standard method (3T3 NRU-test). The cells were incubated with the test substances at a concentration of 30 to 4000 μM for 24 h. The cytotoxicity expressed, in % relative to the negative control was determined.
The cytotoxicity testing was performed as described by Borenfreund et al. and the latest modification of the validated BALB/3T3 clone A31 Neutral Red Uptake Assay (3T3 NRU test) for cytotoxicity testing. BALB/3T3, clone A31 mouse embryo cells were grown as monolayer in 75 cm^2 tissue culture flasks in DMEM high-glucose (4.5 g/L), supplemented with 10% FBS and antibiotics (Sigma-Aldrich, Schnelldorf, Germany). Cultures were maintained at 37.5 °C in a humidified atmosphere under 5% CO2. Cells were plated at a density of 1 × 10^4 cells in 100 μL culture medium in each well of 96-well flat-bottomed microplates (Biologix, Lenexa, KS, USA) and allowed to adhere for 24 h. The test compounds, dissolved in DMSO and diluted in culture medium to concentration range 30 to 4000 μM were then added and the cell cultures were incubated for additional 24 h. […] After treatment with Neutral Red medium, washing and treatment with the Ethanol/Acetic acid solution (NR Desorb), the absorption was measured on a TECAN microplate reader (TECAN, Grödig, Austria) at wavelength 540 nm.

The next series has as its system MCF-10A cells. It counts as cell-based, human. The settings on record: 72 h. On the procedure: (§1) The compounds were studied for antiproliferative activity by standard MTT dye reduction assay. Cell cultures from different cell line types (MCF-10A, MCF-7 and MDA-MB-231) were incubated with the test substances at a concentration of 15 to 2000 μM for 72 h. The antiproliferative activity expressed in % relative to the negative control was determined. The obtained results are shown on Figure 2. MCF-10A is a reliable model for normal human mammary epithelial cells, which serves as a control in experiments to determine antitumor activity. The IC50 values, found in MCF-10A, are used to calculate a selective index (SI), which assesses the potential of a substance to be used as an antitumor agent. We used the following formula to calculate the selective index SI = IC50 of MCF-10A / IC50 of tumor cells. The highest selective index with respect to MCF-7 is shown by the substances: Si3 (SI = 8.35), Si11 (SI = 2.62) and Si1 (SI = 1.24).
(§2) The antiproliferative activity testing was performed on cell cultures from several human cell lines using the standard MTT-dye reduction assay, described by Mosmann. The assay is based on the metabolism of the tetrazolium salt MTT to insoluble formazan by mitochondrial reductases. The formazan concentration can be determined spectrophotometrically. The measured absorption is an indicator of cell viability and metabolic activity. Cell lines: mammary gland type A adenocarcinoma ER+, PR+, HER2- (MCF-7), triple-negative breast cancer ER-, PR-, HER2- (MDA-MB-231) and breast, non-tumorigenic epithelial cell line (MCF-10A) were used in experiments. The cell lines were routinely grown as monolayers in 75 cm^2 tissue culture flasks under standard conditions (described above). Cells were plated at a density of 1 × 10^3 cells in 100 µL in each well of 96-well flat-bottomed microplates and allowed to adhere for 24 h before treatment with test compounds. A concentration range from 15 to 2000 μM was applied for 72 h. The formazan absorption was registered using a microplate reader at λ = 540 nm. Antiproliferative activities were expressed as IC50 values (concentrations required for 50% inhibition of cell growth), calculated using non-linear regression analysis (GraphPad Software, San Diego, CA, USA).

The test system of another series is MCF-7 cells. It counts as cell-based, human. The procedure:
as §1, §2

The test system of the next series is MDA-MB-231 cells. It is filed as cell-based, human. The settings on record: 72 h. The procedure: as §1, §2

Each structure is given as a SMILES string. Residues, ends and D or L forms follow the SMILES beside them. *: point of attachment. Caffeoyl = O=C(/C=C/c1ccc(O)c(O)c1)*

Broadly, the IC50 is the concentration that inhibits the measured activity by half. A high value points to weaker potency in that assay. As a reminder, the melting point is the temperature, or range, at which the solid turns liquid.

Molecule `CC(C)C[C@H](NC(=O)[C@H](CCCCN)NC(=O)/C=C/c1ccc(O)c(O)c1)C(=O)N[C@@H](C)C(=O)N[C@@H](CCCCN)C(=O)N[C@@H](CC(C)C)C(=O)N[C@@H](C)C(=O)N[C@@H](CCCCN)C(N)=O` [Si8, Caf-KLAKLAK-NH2] (Caffeoyl-KLAKLAK-NH2) yielded a melting point of 154 °C. The “antibacterial effect, zones free of microbial growth (in words)” value in the series with Escherichia coli K12 407 is recorded as “clear zones free of microbial growth”. In series [1], it took 710 ± 11.9 µM to reach half-maximal inhibition (IC50 at 24 h). It took 136 ± 7.09 µM to reach half-maximal inhibition in the series on MCF-10A cells (IC50). Also, the midpoint of inhibition with MCF-7 cells (72 h), the IC50, lay at 129 ± 8.03 µM. Moreover, the “selectivity with respect to the studied tumor cell lines (in words)” value with MCF-7 cells (MCF-7 and MDA-MB-231 versus MCF-10A) is given as “do not show selectivity”. The IC50 in the series with MDA-MB-231 cells was determined as 514 ± 26.8 µM.
